Here are results for two compounds from US20180303772A1, “5-HYDROXYTRYPTAMINE 1B RECEPTOR-STIMULATING AGENT FOR THE TREATMENT OF MYOCARDIAL INFARCTION” (INSTITUT PASTEUR, priority 2015, published 2018).

Counter-ions that a name gives are not always drawn.

Test [1] has as its target 5-HT1BR (Mus musculus, UniProt P28334).
Protocol: Counting was done based on the endogenous fluorescence. […] (d) Number of vessels (counted with endogenous GFP from Flk1^GFP/+ mouse) in fluoxetine, fluoxetine and 5HT1B inhibitor, inhibitor alone per mm^2 in the heart.
Statistical analysis was performed using GraphPad Prism software using appropriate tests (non-parametric Mann-Whitney unless specified) and a minimum of 95% confidence interval for significance; p values indicated on figures are <0.05 (*), <0.01 (**), and <0.001 (***). Figures display average values of all animals tested ±SD
For test [2], the system named is C57Bl/6 mice. The test can be described thus: Ischemia reperfusion (myocardial infarct), infarcted area by histology. It counts as in vivo. The note with it: C57Bl/6 mice treated with fluoxetine for 6 weeks.
Protocol: (e-f) Haematoxylin and eosin staining of heart of the placebo and the fluoxetine treated mice. (g) Quantification of the infarcted area with or without fluoxetine treatment.
Animals were anesthetized with ketamine (Imalgene1000 100 mg/Kg Merial) and Xylazine (Rompun2% 20 mg/Kg Bayer) prior to injury. Animals were hydrated and treated with analgesic (Buprenorphin Axience 0.3 mg/kg) twice a day for 4 days following injury.
(§1) Hearts were carefully dissected and snap frozen in liquid-nitrogen-cooled OCT for a few minutes and stored at −80° C. prior to cryosectioning (10 μm sections). Sections were kept at room temperature overnight before staining. Sections were then rehydrated in PBS for 10 minutes and fixed in 10% formalin for 3 minutes. The sections were then routinely stained with haematoxylin and eosin (HE) using an automated stain machine or manually with red sirius.
For image analysis (fibrosis quantification) ImageJ 1.46r software was using between different photos randomly taken per section and 3 sections minimum per experimental group. The pictures were converted in a binary image and the pixel values then collected.
Statistical analysis was performed using GraphPad Prism software using appropriate tests (non-parametric Mann-Whitney unless specified) and a minimum of 95% confidence interval for significance; p values indicated on figures are <0.05 (*), <0.01 (**), and <0.001 (***). […]
In test [3] the test system is Flk1^GFP/+ mice. The test can be described thus: Vessel number in the heart of Flk1GFP/+ mice after 6 weeks of fluoxetine. It counts as in vivo. The note with it: fluoxetine 18 mg/Kg.
Description: Counting was done based on the endogenous fluorescence. (b-c) Cryo-sections of the heart of Flk1^GFP/+ mice treated with placebo (b) or fluoxetine (c). Endogenous GFP levels are shown. (d) Number of vessels (counted with endogenous GFP from Flk1^GFP/+ mouse) in fluoxetine, fluoxetine and 5HT1B inhibitor, inhibitor alone per mm^2 in the heart. (e-f) Haematoxylin and eosin staining of heart of the placebo and the fluoxetine treated mice. (g) Quantification of the infarcted area with or without fluoxetine treatment.
as §1
Statistical analysis was performed using GraphPad Prism software using appropriate tests (non-parametric Mann-Whitney unless specified) and a minimum of 95% confidence interval for significance; p values indicated on figures are <0.05 (*), <0.01 (**), and <0.001 (***). Figures display average values of all animals tested ±SD […]

Sequence of 5-HT1BR (P28334 whole entry, the tested form may be a part): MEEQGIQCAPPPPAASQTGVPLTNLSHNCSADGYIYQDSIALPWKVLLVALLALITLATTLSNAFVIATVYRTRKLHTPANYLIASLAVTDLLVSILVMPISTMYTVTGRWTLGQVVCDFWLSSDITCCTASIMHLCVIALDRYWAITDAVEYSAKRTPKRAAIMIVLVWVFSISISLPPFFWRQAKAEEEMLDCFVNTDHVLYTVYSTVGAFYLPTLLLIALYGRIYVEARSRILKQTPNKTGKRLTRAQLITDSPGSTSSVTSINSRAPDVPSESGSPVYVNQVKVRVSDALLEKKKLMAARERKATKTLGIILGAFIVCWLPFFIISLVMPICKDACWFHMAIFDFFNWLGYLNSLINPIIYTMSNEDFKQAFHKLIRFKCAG

For the compound `COc1ccc(NC(=O)c2ccc(-c3ccc(-c4noc(C)n4)cc3C)cc2)cc1N1CCN(C)CC1` [GR127935 hydrochloride], the “effect of 5-HT1BR inhibition on the fluoxetine-induced increase in vessel number in the heart” value in test [1] (GR127935 hydrochloride in osmotic pump together with fluoxetine treatment) is given as “no increase in the vessel number in the heart was observed”.
`CNCCC(Oc1ccc(C(F)(F)F)cc1)c1ccccc1` (stereo not drawn) [fluoxetine]: the “infarcted area at the histological level” value in test [2] (3 days after infarct, placebo 53126±11849, p=0.02) was determined as 36690±7884 pixels. Moreover, the “infarcted area, first observation after ischemia reperfusion” value in test [2] (control 5%) was 25 % of total area. The “vessel number in the heart” value in test [3] (6 weeks IP, placebo 932.9±186, p=0.017) came to 1634±608 vessels; in test [3] (6 weeks PO, placebo 932.9±186, p=0.03), 1474±375 vessels; in test [1] (fluoxetine and PBS treated mice), 1697±702 vessels per mm^2.
